Results: US20150140015A1, “METHODS AND PHARMACEUTICAL COMPOSITIONS FOR THE TREATMENT OF PANCREATIC CANCER” (INSERM (Institut National de la Sante et de la Recherche …, priority 2013, published 2015)

How the values were obtained:
[1] = tested on: parental HPAF-II cells xenografted in nude mice; test: Tumorigenicity assay: parental HPAF-II cells xenografted in nude mice; type: in vivo; conditions: daily treatment with 1 mole orexin-A/kg (so in the source)
Experimental: (§1) FIG. 8A-C. Effect of daily inoculation of orexin-A on the growth of tumors developed by xenografting OX1R expressing recombinant HPAF-II cells in nude mice. Parental HPAF-II (A) or recombinant OX1R/HPAF-II/cells (B) were inoculated in the flank of nude mice at day 0. Mice were injected daily intraperitoneally with 100 μl of 1 μmoles of orexin-A/Kg solutions starting at day 0 for both cell lines (◯) or day 28 for OX1R/HPAF-II cells (▴) or with 100 μl of PBS ([…]) for controls. The development of tumors was followed by caliper measurement; C. Formalin-fixed xenografted HPAF-II or OX1R/HPAF-II tumors from nude mice intraperitoneally injected daily or not with 1 μmoles/Kg orexin-A were analyzed by cleaved caspase-3 immunostaining. Cleaved caspase-3 positive cells were counted in 10 different fields, each comprising 500 tumoral cells, in the presence (black bars) or absence (white bars) of 50 days orexin-A treatment. Data are the means±SE of 6 tumors in each group; *** p<0.01 versus control.
(§2) Control mice received PBS.

[2] = tested on: recombinant HPAF-II/OX1R cells xenografted in nude mice; test: Tumorigenicity assay: recombinant HPAF-II/OX1R cells xenografted in nude mice; type: in vivo
Experimental: as §1, §2
After dewaxing, rehydrating tumor paraffin sections, and antigen retrieval by pretreatment with high temperature at pH 9, immunohistochemical procedures were carried out using an automated immunohistochemical stainer according to the manufacturer's guidelines (Bond-Max slide stainer, Menarini, Leica Microsystems). For immunohistochemistry on cell lines, cells in pellets were fixed in formalin, embedded in cell blocks (Shandon Cytoblock; Thermo Scientific; USA) and cut into 3 μm sections. […] OX1R immunostaining was evaluated by two investigators (TV and AC) by calculating a score (0-300) obtained by multiplying the intensity (negative, 0; weak, 1; moderate, 2; and strong, 3) by the percentage of stained cells. The pattern of expression (cytoplasmic, membranous, and nuclear) was also recorded, and a mean score was calculated for each tumor. […] Cleaved caspase-3 immunostaining was determined by calculating the percentage of tumor cells stained in 10 fields of xenografted tumor cells, each field comprising 500 tumor cells.

AsPC-1 cells = test: Activated caspase-3 immunostaining in AsPC-1 cells; type: cell-based, human; conditions: 1 μM orexin-A, 48 hr
Experimental: FIG. 4A-C. Effect of orexin-A on apoptosis in AsPC-1 cells. A, SHP-2 protein tyrosine phosphatase inhibitor, NSC-87877, blocks orexin-induced apoptosis. AsPC-1 cells were challenged with (black bars) or without (white bars) 1 μM orexin-A for 48 hr in the absence or presence of NSC-87877 (50 μM). Apoptosis was measured by determination of annexin V-PE binding, and results are expressed as the percentage of apoptotic cells; B and C: Indirect immunostaining of activated caspase-3 in AsPC-1 cells in the presence or absence of orexin-A. Paraformaldehyde-fixed AsPC-1 cells were challenged with (orexin-A) or without (basal) 1 μM orexin-A for 48 hr. Activated caspase-3 immunostaining is shown in B and scored in C. […]
After dewaxing, rehydrating tumor paraffin sections, and antigen retrieval by pretreatment with high temperature at pH 9, immunohistochemical procedures were carried out using an automated immunohistochemical stainer according to the manufacturer's guidelines (Bond-Max slide stainer, Menarini, Leica Microsystems). […] OX1R immunostaining was evaluated by two investigators (TV and AC) by calculating a score (0-300) obtained by multiplying the intensity (negative, 0; weak, 1; moderate, 2; and strong, 3) by the percentage of stained cells. The pattern of expression (cytoplasmic, membranous, and nuclear) was also recorded, and a mean score was calculated for each tumor. […]

For “orexin-A: 33 amino acid hypothalamic neuropeptide, OX1R agonist, SEQ ID NO:2; peptide from GL Biochemicals”, the tumor growth inhibition [1] was “unable to promote tumor growth inhibition”, the “caspase-3 activation in tumors as compared to tumors from parental HPAF-II cells” value ([2]; 1 μmoles/Kg daily i.p., 50 days, cleaved caspase-3 positive cells) was 3.5 fold and the “tumor volumes, treatment of established tumors” value ([2]; orexin-A started after 28 days tumor growth) was “significant reduction in tumor volumes”. For the same substance, the “inhibition of tumor development” value ([2]; treated daily with orexin-A from day 0) was “about 65%” and the “cleavage and activation of caspase 3” value (AsPC-1 cells) was “induced the cleavage and activation of caspase 3”.
